Assay results taken from patent US10869931B2, “Polyethylene glycol-modified angiogenesis inhibitor HM-1 and application thereof” (NANJING ANJI BIOLOGICAL TECHNOLOGY CO.,LTD, priority 2016, dated 2020).
Marks after values point to notes of the source that are not given here. Where no end group is shown, it is not given here.

Tests used:
[1] = test system: Gastric cancer tumor cells; assay: MTT proliferation inhibition, gastric cancer cells; format: cell-based, human; design: concentration or dose not given beside the values; settings: 48 h
Outline: (§1)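 Tumour cells plated at 2×10^4 cells/mL, attached overnight, then exposed to dilutions of mPEG-HM-1 for 48 h at 37 °C, 5% CO2. MTT added 4 h, formazan dissolved in DMSO, absorbance 570/630 nm; growth inhibition = 1 − treated/untreated, three independent repeats, mean±SD.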

[2] = test system: Cervical cancer tumor cells; assay: MTT proliferation inhibition, cervical cancer cells; format: cell-based, human; design: concentration or dose not given beside the values; settings: 48 h
Outline: as §1

[3] = test system: human retinal vascular endothelial cells (HRCEC); assay: MTT proliferation of human retinal vascular endothelial cells; format: cell-based; settings: 48 h; for Inhibition rate: HRCEC proliferation; for A570 nm-A630 nm: HRCEC
Outline: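 HRCEC seeded at 3.0×10^4 cells/mL, adhered overnight, then exposed to polypeptide dilutions for 48 h at 37° C, 5% CO2; medium-only blank control. MTT added for 4 h, formazan dissolved in DMSO. PI (%)=1−administration group/negative group; three independent repeats, mean±SD, t test.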

[4] = test system: Uterine cancer tumor cells; assay: MTT proliferation inhibition, uterine cancer cells; format: cell-based, human; design: concentration or dose not given beside the values; settings: 48 h
Outline: as §1

Hemangioma tumor cells = assay: MTT proliferation inhibition, hemangioma cells; format: cell-based, human; design: concentration or dose not given beside the values; settings: 48 h
Outline: as §1

[5] = test system: Kidney cancer tumor cells; assay: MTT proliferation inhibition, kidney cancer cells; format: cell-based, human; design: concentration or dose not given beside the values; settings: 48 h
Outline: as §1

various tumor cells = assay: MTT proliferation inhibition, overall statements on various tumor cells; format: cell-based, human; settings: compared with the negative control
Protocol: The activity of mPEG-HM-1 to inhibit the growth of various tumor cells was examined by MTT assay. The tumor cells were cultured to a concentration of 90% or more in a 37° C., 5% CO2 incubator and collected by trypsinization. The cells were resuspended in the culture medium and counted under a microscope to adjust the cell concentration to 2×10^4 cells/mL, the cell suspension was inoculated into a 96-well plate at 100 μL/well and incubated overnight at 37° C. in a 5% CO2 incubator. mPEG-HM-1 was diluted with the culture solution to each predetermined concentration. Docetaxel is diluted to the final concentration with the culture medium. After the cells were fully attached, each dilution was added to a 96-well plate (100 μL/well). The mPEG-HM-1 dilution was added as a drug-administered group, and docetaxel was added as a positive control group, and a culture solution without any drug was used as a negative control group. Incubate for 48 h at 37° C. in a 5% CO2 incubator. 5 mg/mL of MTT was added to a 96-well plate at 20 μL per well, and incubation was continued for 4 hours. The medium was aspirated, dissolved in 150 μL of DMSO per well, and gently mixed by shaking for 10 min. The absorbance was measured at a measurement wavelength of 570 nm and a reference wavelength of 630 nm using a microplate reader, and the rate of growth inhibition (proliferation inhibition, PI) was calculated. The formula is as follows: PI (%)=1−administration group/negative group
The test was repeated 3 times independently, and the results obtained by the test were expressed as mean±SD, and the test results are shown in Table 15 to Table 18.

[6] = test system: adjuvant arthritis (AA) SD rats; assay: Adjuvant arthritis (AA) rat model; format: in vivo; settings: for Joint swelling / Left and right paw swelling / Clinical score: AA SD rats; for Clinical score: maximum score 16
[7] = test system: Breast cancer tumor cells; assay: MTT proliferation inhibition, breast cancer cells; format: cell-based, human; design: concentration or dose not given beside the values; settings: 48 h
Outline: as §1

[8] = test system: Bladder Cancer tumor cells; assay: MTT proliferation inhibition, bladder cancer cells; format: cell-based, human; design: concentration or dose not given beside the values; settings: 48 h
Outline: as §1

[9] = 40 mg/kg subcutaneous once every three days
[10] = 20 mg/kg subcutaneous once every three days

Row | Substance | rate of growth inhibition [1] [%] | rate of growth inhibition [2] [%] | Inhibition rate ([3]; 60 μg/mL) | A570 nm-A630 nm ([3]; 60 μg/mL, MTT) | Inhibition rate ([3]; 80 μg/mL) | A570 nm-A630 nm ([3]; 80 μg/mL, MTT) | rate of growth inhibition [4] [%] | rate of growth inhibition (Hemangioma tumor cells) [%] | rate of growth inhibition [5] [%] | inhibition of proliferation of various tumor cells (in words) (various tumor cells) | rate of growth inhibition [7] [%] | rate of growth inhibition [8] [%] | also measured
1 | mPEG-SC20k-Arg-Gly-Ala-Asp-Arg-Ala-Gly-Gly-Gly-Gly-Arg-Gly-Asp ({mPEG‑SC 20 kDa}-RGADRAGGGGRGD) [mPEG-SC20k-HM-1] | 66.14 ± 20.08 | 62.93 ± 20.09 | 45.71%* | 0.7116 ± 0.07539 | 53.92%** | 0.6040 ± 0.06996 | 76.93 ± 23.14 | 55.63 ± 18.30 | 67.29 ± 18.16 | had the best effect | 52.18 ± 18.28 | 50.39 ± 11.73 | Inhibition rate ([3]; 100 μg/mL): 66.64%*; A570 nm-A630 nm ([3]; 100 μg/mL, MTT): 0.4372 ± 0.0721; Joint swelling [6, 9]: 0.81 ± 0.20 mm; Left and right paw swelling [6, 9]: 3.75 ± 0.67 mm; Clinical score [6, 9]: 5.83 ± 1.01
2 | mPEG-bALD10k-Arg-Gly-Ala-Asp-Arg-Ala-Gly-Gly-Gly-Gly-Arg-Gly-Asp ({mPEG‑bALD 10 kDa}-RGADRAGGGGRGD) [mPEG-bALD10k-HM-1] | 75.01 ± 16.20 | 80.08 ± 18.34 | 57.43%** | 0.5669 ± 0.07609 | 75.19%* | 0.3304 ± 0.07354 | 79.79 ± 20.45 | 55.28 ± 12.30 | 70.19 ± 18.11 | had the best effect | 68.15 ± 15.87 | 49.61 ± 12.12 | Inhibition rate ([3]; 40 μg/mL): 47.95%*; A570 nm-A630 nm ([3]; 40 μg/mL, MTT): 0.6931 ± 0.07754; inhibition rate of HRCEC proliferation ([3]; 80 μg/mL, MTT): 75.19%; Joint swelling [6, 10]: 0.69 ± 0.13 mm; Left and right paw swelling [6, 10]: 3.73 ± 0.52 mm; Clinical score [6, 10]: 5.40 ± 1.09; in vivo immune protection effect on adjuvant arthritis model (in words) ([6]; AA rats, subcutaneous, once every three days, vs model group): has the most significant effect
